Laboratory results reported in patent US20180050093A1, “LEPTIN ACTIVE PEPTIDE HAVING D HELIX REGION MUTATIONS, CODING GENE THEREOF, AND APPLICATION THEREOF” (SUN YAT-SEN UNIVERSITY, priority 2015, published 2018).

Tested on: 3T3-L1 preadipocytes
Assay: In-vitro lipid-lowering (adipocyte-degrading) activity analysis, MTT detection
Assay type: cell-based
Conditions: for adipocyte lysis activity vs. negative control (Control, PBS): FIG. 2 mark a
Protocol: Preadipocytes: induced preadipocytes stage; D0-D2: 0-2nd day of induced differentiation (an early stage of differentiation); D9: the 9th day of induced differentiation (a mature adipocyte stage).
1.2 In-Vitro Lipid-Lowering Activity Analysis of the Leptin Active Peptide
Lipid degradation activity of the synthesized leptin active peptide having helix D region mutation is analyzed on a cellular level by taking a 3T3-L1 preadipocyte line as a model. Specific operations are as follows:
b: an early differentiation stage D0-D2 (0-2nd day of induced differentiation); and
c: a mature adipocyte stage D9 (the 9th day of induced differentiation);
a. leptin active peptide having helix D region mutation (PEP-D): diluted to […] with purified water and preserved at −20° C. for later use. After an experiment is started, working concentrations have 3 concentration gradients, that is, 10^−6M, 10^−9M and 10^−11M;
b. positive control. I: H-LEP, recombinant human-derived leptin protein (10221-HNAE, Beijing Sino Biological Inc.), diluted to 10^−6M with purified water and preserved at −20° C. for later use. After an experiment is started, the working concentration is 10^−9M;
c. positive control 2: Ros (rosiglitazone,R2408,Sigma), diluted to a stock solution with a concentration of 2518 μM with DMSO and preserved at −20° C. for later use. After an experiment is started, the stock solution is diluted to a working solution of 0.5 μM with cell culture fluid;
d. negative control (Control): equivalent quantity of PBS
(1) Inoculating 3T3-L1 preadipocytes in corning cell bind 96-well plates (totally inoculated with 3 plates, respectively plate a, plate b and plate c), wherein the inoculation density is 4500 cells/well; and marking, and standing and culturing at 37° C. in a 5% CO2 incubator. Each sample of each plate is operated repeatedly for 3 times, and the whole experiment is repeated for 3 times;
(2) Continuously culturing for 48 hours after the cells are merged to 100% (enabling the cells to exit from a growth cycle, and starting induced differentiation); and
i, taking out the plate a; respectively adding different amounts of leptin active peptide having helix D region mutation (PEP-D) to enable the working concentrations to be respectively 3 concentration gradients, that is, 10^−6M, 10^−9M and 10^−11M; setting 2 positive controls, a negative control (PBS) and a blank control (3 repeated holes are set for each sample), and continuously standing and culturing at 37° C. in the 5% CO2 incubator.
ii, when culturing to 45 hours (that is, 3 hours before the end of drug treatment), taking out the plate a, and measuring MTT (preadipocytes). Specific operations: adding 20 μL of 5 mg/mL of MTT solution into each well, continuously standing and culturing at 37° C. in the 5% CO2 incubator for 3 hours, sucking and discarding the culture solution in the wells, adding 150 μL of DMSO into each well, horizontally shaking for 10 min, detecting a light absorption value at 492 nm by a microplate reader, and drawing a growth curve;
i, taking out the plate b; adding the differentiation induced liquid I (D0); respectively adding the leptin active peptide having helix D region mutation (PEP-D); setting 2 positive controls, a negative control (PBS) and a blank control (3 repeated holes are set for each sample), and continuously standing and culturing at 37° C. in the 5% CO2 incubator.
ii, when culturing to 45 hours (that is, 3 hours before the end of drug treatment), taking out the plate b, and measuring MTT (at the early differentiation stage, D0-D2). Specific operations: adding 20 μL, of 5 mg/mL of MTT solution into each well; continuously standing and culturing at 37° C. in the 5% CO2 incubator for 3 hours; sucking and discarding the culture solution in the wells; adding 150 μL of DMSO into each well; horizontally shaking for 10 min; detecting a light absorption value at 492 nm by the microplate reader; and drawing a growth curve; […]

[1] = P<0.05, H-LEP 10^−9M, Ros 0.5 μM

Row | Compound | adipocyte lysis activity vs. negative control (Control, PBS) [1] | adipocyte lysis activity vs. H-LEP (FIG. 2 mark b, P<0.05) | adipocyte lysis activity vs. Ros (FIG. 2 mark c, P<0.05) | adipocyte-degrading activity compared with the positive controls H-LEP and Ros (MTT, three cell differentiation stages (preadipocytes, early differentiation D0-D2, mature adipocyte D9), PEP-D 10^−6M, 10^−9M, 10^−11M, H-LEP 10^−9M, Ros 0.5 μM) | concentration dependence of lipid-lowering activity (MTT, working concentrations 10^−6M, 10^−9M and 10^−11M) | cell lysis effects at cell stages (preadipocytes stage, differentiation stage (D0-D2), mature adipocyte stage (D9))
1 | CN(CCOc1ccc(CC2SC(=O)NC2=O)cc1)c1ccccn1 (stereo not shown) [Ros, rosiglitazone, reference compound] | obviously better than that of the negative control | – | – | – | – | –
2 | H-LEP: recombinant human-derived leptin protein (10221-HNAE, Beijing Sino Biological Inc.), positive control | obviously better than that of the negative control | – | – | – | – | –
3 | STEVVALDGLQGSLQTMLLQLEYS (An amino acid sequence of the leptin active peptide having helix D region mutation) [PEP-D] | – | obviously better than that of the H-LEP | obviously better than that of the Ros | obviously better than that of positive control-human-derived leptin protein (H-LEP) and a commercially available drug rosiglitazone (Ros) | obvious concentration dependence | obvious cell lysis effects at three stages
